Measured values from patent US9296698B2, “Amino heteroaryl compounds as beta-secretase modulators and methods of use” (Amgen Inc., priority 2009, dated 2016).
Read-outs that look alike come from different tables or passages of the source.

Experiments:
[1] = molecular target: BACE 1 (Beta Secretase enzyme) (Homo sapiens, UniProt P56817); test: In vitro enzymatic BACE FRET assay; assay type: biochemical
Protocol: In Vitro Enzymatic BACE FRET (Fluorescence Resonance Energy Transfer) Assay (Enzyme Assay Data in Table 1)
The assay buffer used in this screen is 0.05 M acetate, pH 4.2, 10% DMSO final, 100 uM genapol (which is a nonionic detergent, below its Critical Micelle Concentration). […] The assay is effectively started by the addition of FRET substrate (50 nM) and the combination is incubated for one hour. The FRET assay is terminated with by addition of Tris buffer, which raises the pH to neutrality, and the fluorescence is determined. The FRET substrate is a peptide with commercially available fluorophore and quencher, on opposite sides of the BACE cleavage site.

[2] = tested on: Aβ40 in conditioned medium of cells stably expressing Amyloid Precursor Protein (APP); test: In vitro BACE cell-based assay (HEK cell assay), Aβ40 sandwich ELISA
Protocol: In Vitro BACE Cell-Based Assay:
The cell-based assay measures inhibition or reduction of Aβ40 in conditioned medium of test compound treated cells expressing amyloid precursor protein.
Cells stably expressing Amyloid Precursor Protein (APP) were plated at a density of 40K cells/well in 96 well plates (Costar). The cells were cultivated for 24 hours at 37° C. and 5% CO2 in DMEM supplemented with 10% FBS. The test compounds were then added to cells in 10-point dose response concentrations with the starting concentration being either 100 μM or 10 μM. The compounds were diluted from stock solutions in DMSO and the final DMSO concentration of the test compounds on cells was 0.1%. After 24 h of incubation with the test compounds the supernatant conditioned media was collected and the Aβ 40 levels were determined using a sandwich ELISA. The IC50 of the compound was calculated from the percent of control or percent inhibition of Aβ 40 as a function of the concentration of the test compound.
The sandwich ELISA to detect Aβ 40 was performed in 96 well microtiter plates, which were pre-treated with goat anti-rabbit IgG (Pierce). The capture and detecting antibody pair that were used to detect Aβ 40 from cell supernatants were affinity purified pAb40 (Biosource) and biotinylated 6E10 (Signet Labs Inc.), respectively. The optimal concentration for the pAb40 antibody was 3 μg/ml in Superblock/TBS (Pierce) that was supplemented with 0.05% Tween 20 (Sigma).
Cellular supernatants were incubated with the capture antibody for 3 h at 4° C., followed by 3 wash steps in TBS-tween (0.05%). The detecting antibody incubation was for 2 h at 4° C., again followed by the wash steps as described previously. The final readout of the ELISA is Time-Resolved Fluorescence (counts per minute) using Delfia reagents Streptavidin-Europium and Enhancement solutions (Perkin Elmer) and the Victor 2 multilabel counter (Perkin Elmer).

[3] = IC50 range symbols, Table 1, read-out: BACE 1 FRET assay
[4] = IC50 range symbols, Table 1, Aβ40, 24 h incubation, read-out: HEK cell assay
[5] = Homo sapiens, HEK293, 24 h, IC50 range symbols, Table 1, Aβ40, 24 h incubation, read-out: HEK cell assay
[6] = bound stated, read-out: IC50 value in the FRET BACE enzyme assay

Chain of BACE 1 (Beta Secretase enzyme) (P56817 46-501, species assumed): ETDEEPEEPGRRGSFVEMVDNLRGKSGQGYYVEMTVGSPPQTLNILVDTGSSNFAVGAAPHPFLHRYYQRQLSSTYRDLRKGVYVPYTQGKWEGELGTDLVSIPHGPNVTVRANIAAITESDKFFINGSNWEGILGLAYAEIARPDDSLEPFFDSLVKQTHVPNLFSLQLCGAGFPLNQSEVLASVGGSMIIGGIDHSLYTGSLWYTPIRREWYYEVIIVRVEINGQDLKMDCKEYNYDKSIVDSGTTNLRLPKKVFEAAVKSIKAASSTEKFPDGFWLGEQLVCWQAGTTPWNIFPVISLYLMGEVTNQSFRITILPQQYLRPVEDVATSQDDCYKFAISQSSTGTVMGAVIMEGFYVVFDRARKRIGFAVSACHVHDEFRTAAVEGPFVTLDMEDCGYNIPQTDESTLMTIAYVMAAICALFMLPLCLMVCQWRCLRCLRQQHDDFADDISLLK

Molecule	IC50 [1, 3]	IC50 [2, 4]	IC50 [2, 5]	IC50 [1, 6]	IC50 ([2]; Homo sapiens, HEK293, bound stated in text, read-out: IC50 value in the BACE cell-based in-vitro assay)
3-(3-amino-7-o-tolylnaphthalen-2-yl)-2-methyl-N-(pyridin-3-ylmethyl)propanamide [Example 69]	< 500 nM	500 to 1000 nM			
Nc1nc2ccc(-c3ccccc3Cl)cc2cc1CCC(=O)NCC1CCCCC1 [Example 3, 3-(2-amino-6-(2-chlorophenyl)quinolin-3-yl)-N-(cyclohexylmethyl)propanamide]	< 500 nM		1000 to 5000 nM		
Cc1ccccc1-c1ccc2nc(N)c(CCC(=O)NCC3CCCO3)cc2c1 (stereo not drawn) [Example 17, 3-(2-amino-6-o-tolylquinolin-3-yl)-N-((tetrahydrofuran-2-yl)methyl)propanamide]	< 500 nM		> 5000 nM		
CCC1CCN1C(=O)C(C)Cc1cc2cc(-c3ncccc3C)ccc2nc1N (stereo not drawn) [Example 118, 3-(2-amino-6-(3-methylpyridin-2-yl)quinolin-3-yl)-1-(2-ethylazetidin-1-yl)-2-methylpropan-1-one]	> 5000 nM		> 5000 nM		
Cc1cccc(C(=O)N2CCCC2)c1-c1ccc2nc(N)c(CC(C)C(=O)Nc3ccccc3)cc2c1 (stereo not drawn) [Example 153, 3-(2-amino-6-(2-methyl-6-(pyrrolidine-1-carbonyl)phenyl)quinolin-3-yl)-2-methyl-N-phenylpropanamide]	< 500 nM		< 500 nM	< 50 nM	< 100 nM
CC(Cc1cc2cc(-c3cccc(Cl)c3)ccc2nc1N)C(=O)NC1CCOC2(CCC2)C1 (stereo not drawn) [Example 11, 3-(2-amino-6-(3-chlorophenyl)-3-quinolinyl)-2-methyl-N-(5-oxaspiro[3,5]non-8-yl)propanamide]	< 500 nM		< 500 nM	< 50 nM	
Cc1ccncc1-c1ccc2nc(N)c(CCC(=O)NCC3CCCCC3)cc2c1 [Example 46, 3-(2-amino-6-(4-methylpyridin-3-yl)quinolin-3-yl)-N-(cyclohexylmethyl)propanamide]	1000 to 5000 nM		> 5000 nM		
Cc1cccnc1-c1ccc2nc(N)c(CCC(=O)N[C@H](C)c3ccccc3OC(F)F)cc2c1 [Example 133, (R)-3-(2-amino-6-(3-methylpyridin-2-yl)quinolin-3-yl)-N-(1-(2-(difluoromethoxy)phenyl)ethyl)propanamide]	1000 to 5000 nM		> 5000 nM		
CCC(Cc1cc2cc(-c3ccccc3C)ccc2nc1N)C(=O)Nc1ccccc1F (stereo not drawn) [Example 50, 2-((2-amino-6-o-tolylquinolin-3-yl)methyl)-N-(2-fluorophenyl)butanamide]	< 500 nM		> 5000 nM		
Cc1cccnc1-c1ccc2nc(N)c(CC(C)C(=O)NCC(F)(F)F)cc2c1 (stereo not drawn) [Example 110, 3-(2-amino-6-(3-methylpyridin-2-yl)quinolin-3-yl)-2-methyl-N-(2,2,2-trifluoroethyl)propanamide]	500 to 1000 nM		500 to 1000 nM		
N-(2-fluorobenzyl)-3-(3-amino-7-o-tolylnaphthalen-2-yl)propanamide [Example 27]	< 500 nM	1000 to 5000 nM			
CC(Cc1cc2cc(C3CC3C)ccc2nc1N)C(=O)NCCC(C)(C)C (stereo not drawn) [Example 7, 3-(2-amino-6-(2-methylcyclopropyl)quinolin-3-yl)-N-(3,3-dimethylbutyl)-2-methylpropanamide]	< 500 nM		1000 to 5000 nM		
3-(3-amino-7-o-tolylnaphthalen-2-yl)-N-(2,3-dihydro-1H-inden-1-yl)propanamide [Example 57]	< 500 nM	1000 to 5000 nM			
3-(3-amino-7-o-tolylnaphthalen-2-yl)-N-(1-(2-methoxyphenyl)ethyl)-2-methylpropanamide [Example 70]	< 500 nM	1000 to 5000 nM			
Cc1ccccc1-c1ccc2nc(N)c(CC(C)C(=O)N[C@H](C)c3ccccc3OC(F)F)cc2c1 (stereo partly drawn) [Example 130, 3-(2-amino-6-o-tolylquinolin-3-yl)-N-((R)-1-(2-(difluoromethoxy)phenyl)ethyl)-2-methylpropanamide]	< 500 nM	1000 to 5000 nM			
CC(=O)c1ccccc1-c1ccc2nc(N)c(CC(C)C(=O)NC3CCOC(C)(C)C3)cc2c1 (stereo not drawn) [Example 143, 3-(6-(2-acetylphenyl)-2-amino-3-quinolinyl)-N-(2,2-dimethyltetrahydro-2H-pyran-4-yl)-2-methylpropanamide]	< 500 nM		< 500 nM		
CCC1CC1c1ccc2nc(N)c(CC(C)C(=O)NCCC(C)(C)C)cc2c1 (stereo not drawn) [Example 120, 3-(2-amino-6-(2-ethylcyclopropyl)quinolin-3-yl)-N-(3,3-dimethylbutyl)-2-methylpropanamide]	500 to 1000 nM		> 5000 nM		
Cc1ccccc1-c1cc2cc(CC(C)C(=O)NCCC(F)(F)F)c(N)nc2cn1 (stereo not drawn) [Example 137, 3-(2-amino-6-o-tolyl-1,7-naphthyridin-3-yl)-2-methyl-N-(3,3,3-trifluoropropyl)propanamide]	< 500 nM		> 5000 nM		
Cc1ccccc1-c1ccc2nc(N)c(CCC(=O)NC3CCCN(C)C3)cc2c1 (stereo not drawn) [Example 39, 3-(2-amino-6-o-tolylquinolin-3-yl)-N-(1-methylpiperidin-3-yl)propanamide]	1000 to 5000 nM		1000 to 5000 nM		
Nc1nc2ccc(-c3cscn3)cc2cc1CCC(=O)NCC1CCCCC1 [Example 2, 3-(2-amino-6-(thiazol-4-yl)quinolin-3-yl)-N-(cyclohexylmethyl)propanamide]	1000 to 5000 nM		> 5000 nM		
Cc1ncccc1-c1ccc2nc(N)c(CCC(=O)NCC3CCCCC3)cc2c1 [Example 38, 3-(2-amino-6-(2-methylpyridin-3-yl)quinolin-3-yl)-N-(cyclohexylmethyl)propanamide]	500 to 1000 nM		> 5000 nM		
Cc1cccnc1-c1cc2cc(CC(C)C(=O)NCCC(C)(C)C)c(N)nc2cc1F (stereo not drawn) [Example 98, 3-(2-amino-7-fluoro-6-(3-methyl-2-pyridinyl)-3-quinolinyl)-N-(3,3-dimethylbutyl)-2-methylpropanamide]	< 500 nM		< 500 nM	< 50 nM	
N-(2-methoxybenzyl)-3-(3-amino-7-o-tolylnaphthalen-2-yl)propanamide [Example 61]	1000 to 5000 nM	> 5000 nM			
COCCNC(=O)CCc1cc2cc(-c3ccccc3C)ccc2nc1N [Example 18, 3-(2-amino-6-o-tolylquinolin-3-yl)-N-(2-methoxyethyl)propanamide]	< 500 nM		> 5000 nM		
COCC1CC1c1ccc2nc(N)c(CC(C)C(=O)NCCC(C)(C)C)cc2c1 (stereo not drawn) [Example 119, 3-(2-amino-6-(2-(methoxymethyl)cyclopropyl)quinolin-3-yl)-N-(3,3-dimethylbutyl)-2-methylpropanamide]	> 5000 nM		> 5000 nM		
Cc1cccnc1-c1ccc2nc(N)c(CC(C)C(=O)N[C@H](C)C(F)(F)F)cc2c1 (stereo partly drawn) [Example 114, 3-(2-amino-6-(3-methylpyridin-2-yl)quinolin-3-yl)-2-methyl-N-((R)-1,1,1-trifluoropropan-2-yl)propanamide]	1000 to 5000 nM		1000 to 5000 nM		
Cc1ccccc1-c1ccc2nc(N)c(CCC(=O)NCC3CCCCC3)nc2c1 [Example 140, 3-(3-amino-7-(2-methylphenyl)-2-quinoxalinyl)-N-(cyclohexylmethyl)propanamide]	< 500 nM		1000 to 5000 nM		
CC(Cc1cc2cc(-c3ncccc3Cl)ccc2nc1N)C(=O)NCCC(F)(F)F (stereo not drawn) [Example 116, 3-(2-amino-6-(3-chloropyridin-2-yl)quinolin-3-yl)-2-methyl-N-(3,3,3-trifluoropropyl)propanamide]	1000 to 5000 nM		> 5000 nM		
